Reference: ChEMBL document CHEMBL4507310, “Data for DCP probe A-1211212” (2021)

Key:
D(3) dopamine receptor = D(3) dopamine receptor (Homo sapiens, UniProt P35462); assay: GPCRScan assay: inhibition of D3; design: radioligand conc. used [nm] 0.5 – 1.8, parental cells HEKT
[1] = target: Sodium-dependent dopamine transporter (Homo sapiens, UniProt Q01959); assay: GPCRScan assay: inhibition of DAT; design: radioligand conc. used [nm] 3.6 – 16.0, parental cells stable HEK
[2] = target: Alpha-1D adrenergic receptor (Homo sapiens, UniProt P25100); assay: GPCRScan assay: inhibition of Alpha1D; design: radioligand conc. used [nm] 0.3 – 1.0, parental cells stable
RS4-11 = assay: CellTiter-Glo Luminescent Cell Viability Assay with RS4-11 cells (BCL-2 dependent cell line); format: functional, cell-based; settings: Homo sapiens
[3] = target: Kappa-type opioid receptor (Homo sapiens) (UniProt P41145); settings: Compound concentration 10.0 uM
[4] = target: T1, 5-hydroxytryptamine receptor 1A (Homo sapiens) (UniProt P08908); settings: Compound concentration 10.0 uM
T1 sequence (whole entry): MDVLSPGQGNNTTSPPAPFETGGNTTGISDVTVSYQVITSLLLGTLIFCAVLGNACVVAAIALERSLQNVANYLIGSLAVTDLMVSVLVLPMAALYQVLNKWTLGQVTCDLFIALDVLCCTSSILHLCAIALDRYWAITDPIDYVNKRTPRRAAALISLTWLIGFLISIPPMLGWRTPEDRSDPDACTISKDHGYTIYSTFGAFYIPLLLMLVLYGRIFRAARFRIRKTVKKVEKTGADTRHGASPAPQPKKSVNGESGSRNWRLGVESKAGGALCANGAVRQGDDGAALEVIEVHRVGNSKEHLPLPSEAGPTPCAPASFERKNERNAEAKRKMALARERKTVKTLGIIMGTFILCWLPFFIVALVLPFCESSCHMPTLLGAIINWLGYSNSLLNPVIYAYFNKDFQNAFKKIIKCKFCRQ

[5] = target: 5-hydroxytryptamine receptor 6 (Homo sapiens) (UniProt P50406); settings: Compound concentration 10.0 uM
[6] = target: 5-hydroxytryptamine receptor 7 (Homo sapiens) (UniProt P34969); settings: Compound concentration 10.0 uM
[7] = target: D(4) dopamine receptor (Homo sapiens) (UniProt P21917); settings: Compound concentration 10.0 uM
[8] = target: Sodium-dependent noradrenaline transporter (Homo sapiens) (UniProt P23975); settings: Compound concentration 10.0 uM
[9] = target: Beta-3 adrenergic receptor (Homo sapiens) (UniProt P13945); settings: Compound concentration 10.0 uM
[10] = target: Alpha-1D adrenergic receptor (Homo sapiens) (UniProt P25100); settings: Compound concentration 10.0 uM
Sequence of Alpha-1D adrenergic receptor (Homo sapiens) (P25100 whole entry): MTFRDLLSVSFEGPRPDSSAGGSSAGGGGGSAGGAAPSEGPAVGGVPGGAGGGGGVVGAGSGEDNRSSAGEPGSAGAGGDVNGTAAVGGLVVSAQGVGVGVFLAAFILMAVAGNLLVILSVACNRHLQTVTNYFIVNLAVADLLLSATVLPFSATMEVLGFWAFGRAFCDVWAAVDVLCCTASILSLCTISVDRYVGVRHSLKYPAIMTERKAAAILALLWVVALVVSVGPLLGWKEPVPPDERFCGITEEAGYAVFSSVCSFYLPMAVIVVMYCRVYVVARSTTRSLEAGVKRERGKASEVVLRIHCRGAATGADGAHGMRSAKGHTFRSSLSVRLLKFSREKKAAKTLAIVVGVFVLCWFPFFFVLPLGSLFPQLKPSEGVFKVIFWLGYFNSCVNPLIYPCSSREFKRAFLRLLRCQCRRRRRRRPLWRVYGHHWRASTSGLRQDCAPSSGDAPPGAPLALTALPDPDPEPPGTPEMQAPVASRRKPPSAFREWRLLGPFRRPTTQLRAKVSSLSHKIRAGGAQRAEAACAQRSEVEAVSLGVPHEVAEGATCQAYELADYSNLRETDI

Sequence of Sodium-dependent dopamine transporter (Q01959 whole entry): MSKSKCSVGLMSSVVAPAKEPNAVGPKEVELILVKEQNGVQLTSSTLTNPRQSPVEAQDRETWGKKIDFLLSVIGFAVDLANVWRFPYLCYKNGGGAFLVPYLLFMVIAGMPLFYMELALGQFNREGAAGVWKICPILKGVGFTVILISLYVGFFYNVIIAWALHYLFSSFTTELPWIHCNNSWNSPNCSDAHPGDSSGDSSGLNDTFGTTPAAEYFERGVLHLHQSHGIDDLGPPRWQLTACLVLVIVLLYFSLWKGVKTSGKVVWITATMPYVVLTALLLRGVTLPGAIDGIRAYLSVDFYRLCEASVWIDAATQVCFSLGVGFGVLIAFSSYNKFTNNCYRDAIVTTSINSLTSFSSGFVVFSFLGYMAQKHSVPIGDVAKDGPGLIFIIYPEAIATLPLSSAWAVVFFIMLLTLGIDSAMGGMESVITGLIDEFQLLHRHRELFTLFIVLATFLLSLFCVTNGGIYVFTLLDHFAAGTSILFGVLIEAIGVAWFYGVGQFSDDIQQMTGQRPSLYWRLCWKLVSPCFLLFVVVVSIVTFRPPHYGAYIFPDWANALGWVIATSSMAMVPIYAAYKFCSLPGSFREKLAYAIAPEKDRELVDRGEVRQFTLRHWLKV
Sequence of Beta-3 adrenergic receptor (Homo sapiens) (P13945 whole entry, looked up): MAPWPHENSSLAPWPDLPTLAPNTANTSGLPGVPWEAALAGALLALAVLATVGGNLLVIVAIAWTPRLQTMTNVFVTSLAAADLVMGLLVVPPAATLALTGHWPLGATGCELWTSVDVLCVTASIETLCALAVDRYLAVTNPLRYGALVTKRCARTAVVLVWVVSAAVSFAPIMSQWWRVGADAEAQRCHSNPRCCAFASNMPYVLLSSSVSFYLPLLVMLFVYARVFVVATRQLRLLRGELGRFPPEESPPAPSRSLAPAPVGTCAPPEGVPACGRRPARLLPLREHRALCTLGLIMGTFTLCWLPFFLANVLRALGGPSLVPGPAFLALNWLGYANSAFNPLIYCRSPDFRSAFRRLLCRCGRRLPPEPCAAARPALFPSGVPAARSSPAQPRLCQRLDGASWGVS
Sequence of Sodium-dependent noradrenaline transporter (Homo sapiens) (P23975 whole entry): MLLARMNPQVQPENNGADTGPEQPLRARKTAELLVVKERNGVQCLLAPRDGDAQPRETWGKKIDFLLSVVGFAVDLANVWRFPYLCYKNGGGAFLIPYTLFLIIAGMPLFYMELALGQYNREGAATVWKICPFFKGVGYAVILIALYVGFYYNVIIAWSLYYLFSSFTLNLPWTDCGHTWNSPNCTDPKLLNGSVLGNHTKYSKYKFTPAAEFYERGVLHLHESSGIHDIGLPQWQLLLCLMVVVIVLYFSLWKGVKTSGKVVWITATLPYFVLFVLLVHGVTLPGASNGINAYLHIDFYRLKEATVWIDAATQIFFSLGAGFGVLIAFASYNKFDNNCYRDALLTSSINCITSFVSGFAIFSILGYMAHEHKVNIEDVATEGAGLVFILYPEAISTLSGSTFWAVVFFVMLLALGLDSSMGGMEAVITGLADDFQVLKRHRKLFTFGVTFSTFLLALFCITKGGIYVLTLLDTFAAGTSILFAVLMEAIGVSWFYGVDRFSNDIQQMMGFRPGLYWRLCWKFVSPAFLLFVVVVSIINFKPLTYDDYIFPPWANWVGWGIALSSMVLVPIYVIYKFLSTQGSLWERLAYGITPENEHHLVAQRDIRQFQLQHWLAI
Sequence of 5-hydroxytryptamine receptor 6 (Homo sapiens) (P50406 whole entry): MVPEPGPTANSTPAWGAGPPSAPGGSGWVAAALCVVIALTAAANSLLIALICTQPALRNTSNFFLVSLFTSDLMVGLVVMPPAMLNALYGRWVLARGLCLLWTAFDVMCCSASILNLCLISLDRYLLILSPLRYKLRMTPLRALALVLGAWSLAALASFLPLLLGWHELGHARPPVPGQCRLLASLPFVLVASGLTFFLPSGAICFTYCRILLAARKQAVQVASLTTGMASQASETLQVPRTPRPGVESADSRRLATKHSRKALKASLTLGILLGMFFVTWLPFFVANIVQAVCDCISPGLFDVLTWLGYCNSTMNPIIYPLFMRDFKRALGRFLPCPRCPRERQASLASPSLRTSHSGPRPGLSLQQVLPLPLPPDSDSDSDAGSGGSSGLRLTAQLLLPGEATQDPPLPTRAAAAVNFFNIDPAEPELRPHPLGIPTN
Sequence of 5-hydroxytryptamine receptor 7 (Homo sapiens) (P34969 whole entry): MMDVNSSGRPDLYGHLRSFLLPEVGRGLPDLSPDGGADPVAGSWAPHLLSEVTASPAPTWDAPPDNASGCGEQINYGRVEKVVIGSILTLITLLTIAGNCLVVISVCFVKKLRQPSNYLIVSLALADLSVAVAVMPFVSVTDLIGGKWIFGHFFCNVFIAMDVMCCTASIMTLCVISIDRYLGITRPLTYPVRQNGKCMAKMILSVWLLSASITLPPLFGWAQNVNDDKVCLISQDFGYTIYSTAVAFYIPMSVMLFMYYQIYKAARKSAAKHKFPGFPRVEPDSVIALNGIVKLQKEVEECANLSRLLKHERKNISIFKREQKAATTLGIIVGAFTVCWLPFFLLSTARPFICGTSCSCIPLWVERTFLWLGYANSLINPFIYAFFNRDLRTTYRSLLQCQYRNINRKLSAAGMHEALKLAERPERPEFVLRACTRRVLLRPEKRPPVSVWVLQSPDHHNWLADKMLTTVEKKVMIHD
Sequence of Alpha-1D adrenergic receptor (P25100 whole entry): as the sequence (P25100 whole entry) above
Sequence of D(4) dopamine receptor (Homo sapiens) (P21917 whole entry): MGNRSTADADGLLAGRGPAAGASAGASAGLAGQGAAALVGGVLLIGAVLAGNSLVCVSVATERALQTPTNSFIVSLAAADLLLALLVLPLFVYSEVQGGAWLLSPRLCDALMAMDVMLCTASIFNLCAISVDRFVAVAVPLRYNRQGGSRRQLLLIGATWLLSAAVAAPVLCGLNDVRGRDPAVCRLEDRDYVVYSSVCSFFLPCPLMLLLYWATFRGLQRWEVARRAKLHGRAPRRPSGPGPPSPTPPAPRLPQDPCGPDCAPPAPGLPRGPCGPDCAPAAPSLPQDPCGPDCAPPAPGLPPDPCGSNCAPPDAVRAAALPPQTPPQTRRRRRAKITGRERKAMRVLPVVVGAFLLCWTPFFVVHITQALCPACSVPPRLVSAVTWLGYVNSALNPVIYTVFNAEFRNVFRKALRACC
Sequence of D(3) dopamine receptor (P35462 whole entry): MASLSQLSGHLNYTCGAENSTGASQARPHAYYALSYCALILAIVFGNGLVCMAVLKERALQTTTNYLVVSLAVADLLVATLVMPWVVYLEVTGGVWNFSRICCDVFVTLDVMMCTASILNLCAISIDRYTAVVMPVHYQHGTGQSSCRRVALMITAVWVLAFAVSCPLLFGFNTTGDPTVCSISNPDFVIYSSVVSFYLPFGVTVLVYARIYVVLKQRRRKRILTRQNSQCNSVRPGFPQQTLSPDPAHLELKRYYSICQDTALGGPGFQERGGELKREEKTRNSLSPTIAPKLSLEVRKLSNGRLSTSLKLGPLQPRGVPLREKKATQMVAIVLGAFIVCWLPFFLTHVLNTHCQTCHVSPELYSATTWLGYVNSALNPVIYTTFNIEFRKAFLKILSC
Sequence of Kappa-type opioid receptor (Homo sapiens) (P41145 whole entry): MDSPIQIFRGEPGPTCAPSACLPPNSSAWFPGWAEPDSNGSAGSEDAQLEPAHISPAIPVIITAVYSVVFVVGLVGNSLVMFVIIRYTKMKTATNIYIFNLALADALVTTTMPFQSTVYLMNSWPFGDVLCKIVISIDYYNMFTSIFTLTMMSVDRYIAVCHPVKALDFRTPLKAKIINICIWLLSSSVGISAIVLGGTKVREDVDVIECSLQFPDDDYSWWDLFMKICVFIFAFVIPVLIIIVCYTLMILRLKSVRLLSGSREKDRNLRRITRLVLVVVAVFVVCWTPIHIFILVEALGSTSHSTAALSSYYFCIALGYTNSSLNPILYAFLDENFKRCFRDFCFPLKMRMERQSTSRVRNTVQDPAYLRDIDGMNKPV

Compound	Ki (D(3) dopamine receptor)	Ki ([1]; read-out: Ki)	Ki ([1]; read-out: pKi (converted))	Ki [2]	EC50 (RS4-11)	inhibition [3]	inhibition [4]	inhibition [5]	inhibition [6]	inhibition [7]	inhibition [8]	inhibition [9]	inhibition [10]
O=C(NS(=O)(=O)c1ccc(NCC2CCOCC2)c([N+](=O)[O-])c1)c1ccc(N2CCN(Cc3ccc(C(F)(F)F)cc3-c3ccc(Cl)cc3)CC2)cc1Oc1cnc2[nH]ccc2c1 [A-1210227]	10 µM	9.8 µM	9.77 µM	10 µM	> 5 µM (not active)	-0.08%							
CO[C@H]1CC[C@H](CNc2ccc(S(=O)(=O)NC(=O)c3ccc(N4CCN(CC5=C(c6ccc(Cl)cc6)CC(C)(C)CC5)CC4)cc3Oc3cnc4[nH]ccc4c3)cc2[N+](=O)[O-])CC1 [A-1211212]							-7.27%	-8.56%	-7.24%	-4.72%	39.5%	-6.65%	-9.01%
